Assay results reported in EP1285971B1, “Methods for the phenotypic and genotypic assessment of the drug sensitivity of HIV integrase variants” (Tibotec Pharmaceuticals Ltd., priority 2001, dated 2003).

Columns and labels:
Assay in all cases: microbe, parasite or virus in culture
Conditions in all cases: for fold change: fold change in EC50
patient_146514 = type: cell-based, HIV
Procedure: (§1) The integrase encoding sequence was amplified from either wildtype HIV-1 (IIIB) or NL4.3 virus, or HXB2D site-directed mutant viruses containing mutations in integrase (such as T66I, S153Y, M154I, or combinations thereof) (Hazuda et al., Science 2000, 287, 646-650), or patient samples. Starting from RNA, extracted from virus supernatant or plasma using the QIAamp® viral RNA extraction kit (Qiagen), cDNA was synthesized by reverse transcription (Expand TM reverse transcriptase, 30 min at 42°C) with the primer 3'EGINT10 (SEQ ID NO 11), followed by a nested PCR. The outer PCR was performed with the primers 5'EGINT1 (SEQ ID NO 1) and 3'EGINT10 (SEQ ID NO 11) (ΔR-IN-vif construct) or 5'EGINT3 (SEQ ID NO 4) and 3'EGINT10 (SEQ ID NO 11) (ΔIN construct) (Expand™ High Fidelity PCR system), and 5 µl of the outer product was used for an inner PCR with primers 5'EGINT2 (SEQ ID NO 3) and 3'EGINT11 (SEQ ID NO 12) (ΔR-IN-vif construct) or 5'EGINT4 (SEQ ID NO 5) and 3'EGINT6 (SEQ ID NO 7) (ΔIN construct). In a second protocol the outer primers were identical as described above, the inner primers are 5'EGINT5 (SEQ ID NO 6) and 3'EGINT6 (SEQ ID NO 7). The amplicons can be used for genotyping and phenotyping. Cycling conditions for both PCRs are denaturation for 3 min at 95°C, followed by 30 cycles of 1 min 90°C, 30 sec 55°C, and 2 min 72°C. A final extension was performed at 72°C for 10 min. For recombination, PCR products are purified using the QiaQuick® 96 PCR BioRobot kit (Qiagen), according to the manufacturer's protocol. If the protocol starts from DNA containing the HIV material such as proviral DNA, the reverse transcriptase step is not needed. The nested approach is also not needed when starting from proviral DNA. The obtained amplicons were sequenced using the primers: In_seq1F (SEQ ID NO 17), In_seq2F (SEQ ID NO 18), In_seq3F (SEQ ID NO 19), IN_seq1R (SEQ ID NO 20), IN_seq2R (SEQ ID NO 21), and IN_seq3R (SEQ ID NO 22).
(§2) A ΔR-IN-vif or ΔIN deletion construct was generated by site-directed mutagenesis on the template pSV40HXB2D with the primers MUT-IN1 (SEQ ID NO 13) and MUT-IN2 (ΔR-IN-vif construct) (SEQ ID NO 14) or MUT-IN3 (SEQ ID NO 15) and MUT-IN4 (SEQ ID NO 16) (ΔIN construct) (protocol Site-directed mutagenesis kit, Stratagene). After DpnI digestion for removal of the methylated template DNA, the construct was digested with SmaI and ligated to circulize the plasmid. The plasmid was transformed into competent cells such as Top10 cells, and colonies were screened for the presence of the deletion construct. The IN-deletion construct was checked by sequence analysis with primers 5'EGINT1 (SEQ ID NO 1) or […] and 3'EGINT10 (SEQ ID NO 11) or 3'EGINT11 (SEQ ID NO 12). For use in recombination experiments, large-scale plasmid DNA preparations were linearized by SmaI digestion and recombined with PCR amplified integrase genes from wild type, mutant, or patient viruses. The plasmid containing the integrase deletion (ΔIN) has been deposited pSV40HXB2D-ΔIN. The sequence of said plasmid is 14377 nucleotides long. The ΔR-IN-vif deletion construct is 13975 nucleotides long. The pSV40HXB2D-ΔIN was deposited at the Belgian Coordinated Collections of Micro-Organisms located at the Universiteit Gent - Laboratorium voor Moleculaire Biologie on August 5, 2002 and the accession number is LMBP 4574.
(§3) Recombinant virus was produced by co-transfection by electroporation of the SmaI-linearized IN-deletion construct and the integrase amplicon into MT4 cells or MT4 cells equipped with an LTR driven reporter gene construct. Production of recombinant virus was evaluated by scoring the cytopathogenic effect (CPE) that is induced by HIV-infection of MT4 cells or by the LTR-driven reporter signal induced by HIV infection in MT4 reporter cells.

NL 4-3 = type: cell-based, HIV-1
Procedure: as §1, §2, §3

WT III B = type: cell-based, HIV-1
Procedure: as §1, §2, §3

[1] = AVE 2, patient_146514, primer set 3
[2] = Human immunodeficiency virus 1, NL43, AVE 4, NL4-3, primer set 4
[3] = Human immunodeficiency virus 1, AVE 2, patient_146514, primer set 3
[4] = Human immunodeficiency virus 1, AVE 1, NL 4-3, primer set 3
[5] = Human immunodeficiency virus 1, AVE 5, WT III B, primer set 4
[6] = Human immunodeficiency virus 1, AVE 3, WT III B, primer set 3

| Structure (SMILES) | EC50 (patient_146514; [1]) [nM] | fold change (patient_146514; [1]) | EC50 (NL 4-3; AVE 1, NL 4-3, primer set 3) [nM] | fold change (NL 4-3; AVE 1, NL 4-3, primer set 3) | fold change (NL 4-3; AVE 4, NL4-3, primer set 4) | EC50 (NL 4-3; [2]) [nM] | EC50 (WT III B; AVE 3, WT III B, primer set 3) [nM] | fold change (WT III B; AVE 3, WT III B, primer set 3) | EC50 (WT III B; AVE 5, WT III B, primer set 4) [nM] | fold change (WT III B; AVE 5, WT III B, primer set 4) | EC50 (patient_146514; [3]) [nM] | EC50 (NL 4-3; [4]) [nM] | EC50 (WT III B; [5]) [nM] | EC50 (WT III B; [6]) [nM] |
| --- | --- | --- | --- | --- | --- | --- | --- | --- | --- | --- | --- | --- | --- | --- |
| Cc1cc(C#N)cc(C)c1Oc1nc(Nc2ccc(C#N)cc2)nc(N)c1Br [Compound 1, 4-[[6-amino-5-bromo-2-[(4-cyanophenyl)amino]-4-pyrimidinyl]oxy]-3,5-dimethyl-benzonitrile] | 1.7 | 1,7 | 1 | 1,0 | 2,3 | 2.3 | 0.9 | 0,9 | 1.2 | 1,2 | – | – | – | – |
| Cc1cn([C@H]2C[C@H](N=[N+]=[N-])[C@@H](CO)O2)c(=O)[nH]c1=O [AZT, Zidovudine] | – | 0,9 | – | 0,9 | 1,1 | 182 | – | – | – | 0,9 | 150 | 143 | 144 | – |
| Cc1ccnc2c1NC(=O)c1cccnc1N2C1CC1 [NVP, Nevirapine] | – | 1,7 | – | 1,1 | 1,7 | 151 | – | 0,8 | – | 1,6 | 151 | 97.6 | 134 | 66.2 |
| CC(C)c1nc(CN(C)C(=O)N[C@H](C(=O)N[C@@H](Cc2ccccc2)C[C@H](O)[C@H](Cc2ccccc2)NC(=O)OCc2cncs2)C(C)C)cs1 [RTV, ritonavir] | – | 1,3 | – | 0,6 | 1,2 | 172 | – | 0,3 | – | 1,0 | 192 | 87.1 | 154 | 44.9 |
| Nc1ccn([C@@H]2CS[C@H](CO)O2)c(=O)n1 [Compound 3TC, Lamivudine] | – | 2,5 | – | 0,6 | 2,0 | 2730 | – | 0,3 | – | 1,2 | 3490 | 820 | 1690 | 384 |
| c1cc(CN2CCCNCCNCCCNCC2)ccc1CN1CCCNCCNCCCNCC1 [AMD3100] | – | 1,0 | – | 0,9 | 1,1 | 63 | – | 0,8 | – | 0,8 | 54.9 | 50.6 | 41.7 | 44.2 |
